Source: patent US7118895B2, “Process for producing aglycon by using diglycosidase and flavor-improved food containing the aglycon and converting agent to be used in the process” (Amano Enzyme Inc., priority 2000, dated 2006)

Experiments:
[1] = system: Diglycosidase derived from P. multicolor; test: Reactivity toward various isoflavone glycosides (HPLC); assay type: biochemical, Penicillium multicolor; set-up: glucoside / aglycon: unit not given here; details: for aglycon / glucoside: 55 °C, pH 4.0
Summary of the method: (§1)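 Aglycone liberation was measured by reversed-phase HPLC (260 nm, calibration-curve quantitation) after ethanol extraction at 0, 1, 3 and 6 h. Reactions ran at 55° C, pH 4.0 (20 mM acetate), with each glycoside (from 2 mM methanol stock) and 0.75 AU/mL enzyme solution.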

[2] = system: Crude diglycosidase; test: Examination of substrate concentration in the conversion into isoflavone aglycons by diglycosidase using soybean materials; assay type: biochemical, Penicillium multicolor IAM7153;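 note: percent of the isoflavone family total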
Summary of the method: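 Reaction at 55° C, shaken, pH 4.0 (20 mM acetate), using crude diglycosidase from a 1.88 AU/mL enzyme solution on soy flour, soymilk, defatted soybean or soy protein concentrate at 2, 5, 10, 20 or 30% (w/v). Isoflavone aglycons quantified by HPLC of ethanol extracts at 0, 1, 3, 6 h.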

[3] = system: β-Glucosidase derived from A. niger; test: Reactivity toward various isoflavone glycosides (HPLC); assay type: biochemical, Aspergillus niger; set-up: glucoside / aglycon: unit not given here; details: 55 °C, pH 4.0
Summary of the method: as §1

aglycon ([1]; Reaction time 0 h): 0
glucoside ([1]; Reaction time 0 h): 100
aglycon ([1]; Reaction time 1 h): 0
glucoside ([1]; Reaction time 1 h): 100
aglycon ([1]; Reaction time 3 h): 0
glucoside ([1]; Reaction time 3 h): 100
aglycon ([1]; Reaction time 6 h): 0
glucoside ([1]; Reaction time 6 h): 100
efficiency of decomposing by diglycosidase with combined use of β-glucosidase ([1]; combined use of β-glucosidase in addition to the enzyme): further enhanced
Decomposition efficiency: ratio of each glycoside/aglycon within its isoflavone family ([2]; concentrated soybean protein, substrate concentration 2%, heat treatment of enzyme no, reaction time 0 h): 50.5%
Decomposition efficiency: ratio of each glycoside/aglycon within its isoflavone family ([2]; concentrated soybean protein, substrate concentration 2%, heat treatment of enzyme no, reaction time 1 h): 1.2%
Decomposition efficiency: ratio of each glycoside/aglycon within its isoflavone family ([2]; concentrated soybean protein, substrate concentration 2%, heat treatment of enzyme no, reaction time 3 h): not detected
Decomposition efficiency: ratio of each glycoside/aglycon within its isoflavone family ([2]; concentrated soybean protein, substrate concentration 2%, heat treatment of enzyme no, reaction time 6 h): not detected
Decomposition efficiency: ratio of each glycoside/aglycon within its isoflavone family ([2]; concentrated soybean protein, substrate concentration 2%, heat treatment of enzyme yes, reaction time 6 h): 51.6%
Decomposition efficiency: ratio of each glycoside/aglycon within its isoflavone family ([2]; concentrated soybean protein, substrate concentration 5%, heat treatment of enzyme no, reaction time 0 h): 51.2%
Decomposition efficiency: ratio of each glycoside/aglycon within its isoflavone family ([2]; concentrated soybean protein, substrate concentration 5%, heat treatment of enzyme no, reaction time 1 h): not detected
Decomposition efficiency: ratio of each glycoside/aglycon within its isoflavone family ([2]; concentrated soybean protein, substrate concentration 5%, heat treatment of enzyme no, reaction time 3 h): not detected
Decomposition efficiency: ratio of each glycoside/aglycon within its isoflavone family ([2]; concentrated soybean protein, substrate concentration 5%, heat treatment of enzyme no, reaction time 6 h): not detected
Decomposition efficiency: ratio of each glycoside/aglycon within its isoflavone family ([2]; concentrated soybean protein, substrate concentration 5%, heat treatment of enzyme yes, reaction time 6 h): 52.2%
Decomposition efficiency: ratio of each glycoside/aglycon within its isoflavone family ([2]; concentrated soybean protein, substrate concentration 10%, heat treatment of enzyme no, reaction time 0 h): 50.6%
Decomposition efficiency: ratio of each glycoside/aglycon within its isoflavone family ([2]; concentrated soybean protein, substrate concentration 10%, heat treatment of enzyme no, reaction time 1 h): 1.3%
Decomposition efficiency: ratio of each glycoside/aglycon within its isoflavone family ([2]; concentrated soybean protein, substrate concentration 10%, heat treatment of enzyme no, reaction time 3 h): not detected
Decomposition efficiency: ratio of each glycoside/aglycon within its isoflavone family ([2]; concentrated soybean protein, substrate concentration 10%, heat treatment of enzyme no, reaction time 6 h): not detected
Decomposition efficiency: ratio of each glycoside/aglycon within its isoflavone family ([2]; concentrated soybean protein, substrate concentration 10%, heat treatment of enzyme yes, reaction time 6 h): 50.9%
Decomposition efficiency: ratio of each glycoside/aglycon within its isoflavone family ([2]; concentrated soybean protein, substrate concentration 20%, heat treatment of enzyme no, reaction time 0 h): 50.4%
Decomposition efficiency: ratio of each glycoside/aglycon within its isoflavone family ([2]; concentrated soybean protein, substrate concentration 20%, heat treatment of enzyme no, reaction time 1 h): 6.0%
Decomposition efficiency: ratio of each glycoside/aglycon within its isoflavone family ([2]; concentrated soybean protein, substrate concentration 20%, heat treatment of enzyme no, reaction time 3 h): not detected
Decomposition efficiency: ratio of each glycoside/aglycon within its isoflavone family ([2]; concentrated soybean protein, substrate concentration 20%, heat treatment of enzyme no, reaction time 6 h): not detected
Decomposition efficiency: ratio of each glycoside/aglycon within its isoflavone family ([2]; concentrated soybean protein, substrate concentration 20%, heat treatment of enzyme yes, reaction time 6 h): 50.8%
Decomposition efficiency: ratio of each glycoside/aglycon within its isoflavone family ([2]; concentrated soybean protein, substrate concentration 30%, heat treatment of enzyme no, reaction time 0 h): 54.6%
Decomposition efficiency: ratio of each glycoside/aglycon within its isoflavone family ([2]; concentrated soybean protein, substrate concentration 30%, heat treatment of enzyme no, reaction time 1 h): 2.8%
Decomposition efficiency: ratio of each glycoside/aglycon within its isoflavone family ([2]; concentrated soybean protein, substrate concentration 30%, heat treatment of enzyme no, reaction time 3 h): not detected
Decomposition efficiency: ratio of each glycoside/aglycon within its isoflavone family ([2]; concentrated soybean protein, substrate concentration 30%, heat treatment of enzyme no, reaction time 6 h): not detected
Decomposition efficiency: ratio of each glycoside/aglycon within its isoflavone family ([2]; concentrated soybean protein, substrate concentration 30%, heat treatment of enzyme yes, reaction time 6 h): 55.6%
Decomposition efficiency: ratio of each glycoside/aglycon within its isoflavone family ([2]; roasted soy flour, substrate concentration 2%, heat treatment of enzyme no, reaction time 0 h): 33.2%
Decomposition efficiency: ratio of each glycoside/aglycon within its isoflavone family ([2]; roasted soy flour, substrate concentration 2%, heat treatment of enzyme no, reaction time 1 h): not detected
Decomposition efficiency: ratio of each glycoside/aglycon within its isoflavone family ([2]; roasted soy flour, substrate concentration 2%, heat treatment of enzyme no, reaction time 3 h): not detected
Decomposition efficiency: ratio of each glycoside/aglycon within its isoflavone family ([2]; roasted soy flour, substrate concentration 2%, heat treatment of enzyme no, reaction time 6 h): not detected
Decomposition efficiency: ratio of each glycoside/aglycon within its isoflavone family ([2]; roasted soy flour, substrate concentration 2%, heat treatment of enzyme yes, reaction time 6 h): 48.4%
Decomposition efficiency: ratio of each glycoside/aglycon within its isoflavone family ([2]; roasted soy flour, substrate concentration 5%, heat treatment of enzyme no, reaction time 0 h): 47.8%
Decomposition efficiency: ratio of each glycoside/aglycon within its isoflavone family ([2]; roasted soy flour, substrate concentration 5%, heat treatment of enzyme no, reaction time 1 h): not detected
Decomposition efficiency: ratio of each glycoside/aglycon within its isoflavone family ([2]; roasted soy flour, substrate concentration 5%, heat treatment of enzyme no, reaction time 3 h): not detected
Decomposition efficiency: ratio of each glycoside/aglycon within its isoflavone family ([2]; roasted soy flour, substrate concentration 5%, heat treatment of enzyme no, reaction time 6 h): not detected
Decomposition efficiency: ratio of each glycoside/aglycon within its isoflavone family ([2]; roasted soy flour, substrate concentration 5%, heat treatment of enzyme yes, reaction time 6 h): 47.8%
Decomposition efficiency: ratio of each glycoside/aglycon within its isoflavone family ([2]; roasted soy flour, substrate concentration 10%, heat treatment of enzyme no, reaction time 0 h): 59.5%
Decomposition efficiency: ratio of each glycoside/aglycon within its isoflavone family ([2]; roasted soy flour, substrate concentration 10%, heat treatment of enzyme no, reaction time 1 h): not detected
Decomposition efficiency: ratio of each glycoside/aglycon within its isoflavone family ([2]; roasted soy flour, substrate concentration 10%, heat treatment of enzyme no, reaction time 3 h): not detected
Decomposition efficiency: ratio of each glycoside/aglycon within its isoflavone family ([2]; roasted soy flour, substrate concentration 10%, heat treatment of enzyme no, reaction time 6 h): not detected
Decomposition efficiency: ratio of each glycoside/aglycon within its isoflavone family ([2]; roasted soy flour, substrate concentration 10%, heat treatment of enzyme yes, reaction time 6 h): 49.5%
Decomposition efficiency: ratio of each glycoside/aglycon within its isoflavone family ([2]; roasted soy flour, substrate concentration 20%, heat treatment of enzyme no, reaction time 0 h): 50.5%
Decomposition efficiency: ratio of each glycoside/aglycon within its isoflavone family ([2]; roasted soy flour, substrate concentration 20%, heat treatment of enzyme no, reaction time 1 h): not detected
Decomposition efficiency: ratio of each glycoside/aglycon within its isoflavone family ([2]; roasted soy flour, substrate concentration 20%, heat treatment of enzyme no, reaction time 3 h): not detected
Decomposition efficiency: ratio of each glycoside/aglycon within its isoflavone family ([2]; roasted soy flour, substrate concentration 20%, heat treatment of enzyme no, reaction time 6 h): not detected
Decomposition efficiency: ratio of each glycoside/aglycon within its isoflavone family ([2]; roasted soy flour, substrate concentration 20%, heat treatment of enzyme yes, reaction time 6 h): 49.5%
Decomposition efficiency: ratio of each glycoside/aglycon within its isoflavone family ([2]; roasted soy flour, substrate concentration 30%, heat treatment of enzyme no, reaction time 0 h): 49.4%
Decomposition efficiency: ratio of each glycoside/aglycon within its isoflavone family ([2]; roasted soy flour, substrate concentration 30%, heat treatment of enzyme no, reaction time 1 h): 5.7%
Decomposition efficiency: ratio of each glycoside/aglycon within its isoflavone family ([2]; roasted soy flour, substrate concentration 30%, heat treatment of enzyme no, reaction time 3 h): 9.6%
Decomposition efficiency: ratio of each glycoside/aglycon within its isoflavone family ([2]; roasted soy flour, substrate concentration 30%, heat treatment of enzyme no, reaction time 6 h): 2.0%
Decomposition efficiency: ratio of each glycoside/aglycon within its isoflavone family ([2]; roasted soy flour, substrate concentration 30%, heat treatment of enzyme yes, reaction time 6 h): 50.1%
Decomposition efficiency: ratio of each glycoside/aglycon within its isoflavone family ([2]; soymilk, substrate concentration 2%, heat treatment of enzyme no, reaction time 0 h): 54.5%
Decomposition efficiency: ratio of each glycoside/aglycon within its isoflavone family ([2]; soymilk, substrate concentration 2%, heat treatment of enzyme no, reaction time 1 h): not detected
Decomposition efficiency: ratio of each glycoside/aglycon within its isoflavone family ([2]; soymilk, substrate concentration 2%, heat treatment of enzyme no, reaction time 3 h): not detected
Decomposition efficiency: ratio of each glycoside/aglycon within its isoflavone family ([2]; soymilk, substrate concentration 2%, heat treatment of enzyme no, reaction time 6 h): not detected
Decomposition efficiency: ratio of each glycoside/aglycon within its isoflavone family ([2]; soymilk, substrate concentration 2%, heat treatment of enzyme yes, reaction time 6 h): 38.0%
Decomposition efficiency: ratio of each glycoside/aglycon within its isoflavone family ([2]; soymilk, substrate concentration 5%, heat treatment of enzyme no, reaction time 0 h): 31.5%
Decomposition efficiency: ratio of each glycoside/aglycon within its isoflavone family ([2]; soymilk, substrate concentration 5%, heat treatment of enzyme no, reaction time 1 h): not detected
Decomposition efficiency: ratio of each glycoside/aglycon within its isoflavone family ([2]; soymilk, substrate concentration 5%, heat treatment of enzyme no, reaction time 3 h): not detected
Decomposition efficiency: ratio of each glycoside/aglycon within its isoflavone family ([2]; soymilk, substrate concentration 5%, heat treatment of enzyme no, reaction time 6 h): not detected
Decomposition efficiency: ratio of each glycoside/aglycon within its isoflavone family ([2]; soymilk, substrate concentration 5%, heat treatment of enzyme yes, reaction time 6 h): 37.9%
Decomposition efficiency: ratio of each glycoside/aglycon within its isoflavone family ([2]; soymilk, substrate concentration 10%, heat treatment of enzyme no, reaction time 0 h): 32.9%
Decomposition efficiency: ratio of each glycoside/aglycon within its isoflavone family ([2]; soymilk, substrate concentration 10%, heat treatment of enzyme no, reaction time 1 h): not detected
Decomposition efficiency: ratio of each glycoside/aglycon within its isoflavone family ([2]; soymilk, substrate concentration 10%, heat treatment of enzyme no, reaction time 3 h): not detected
Decomposition efficiency: ratio of each glycoside/aglycon within its isoflavone family ([2]; soymilk, substrate concentration 10%, heat treatment of enzyme no, reaction time 6 h): not detected
Decomposition efficiency: ratio of each glycoside/aglycon within its isoflavone family ([2]; soymilk, substrate concentration 10%, heat treatment of enzyme yes, reaction time 6 h): 37.6%
Decomposition efficiency: ratio of each glycoside/aglycon within its isoflavone family ([2]; soymilk, substrate concentration 20%, heat treatment of enzyme no, reaction time 0 h): 33.3%
Decomposition efficiency: ratio of each glycoside/aglycon within its isoflavone family ([2]; soymilk, substrate concentration 20%, heat treatment of enzyme no, reaction time 1 h): not detected
Decomposition efficiency: ratio of each glycoside/aglycon within its isoflavone family ([2]; soymilk, substrate concentration 20%, heat treatment of enzyme no, reaction time 3 h): not detected
Decomposition efficiency: ratio of each glycoside/aglycon within its isoflavone family ([2]; soymilk, substrate concentration 20%, heat treatment of enzyme no, reaction time 6 h): not detected
Decomposition efficiency: ratio of each glycoside/aglycon within its isoflavone family ([2]; soymilk, substrate concentration 20%, heat treatment of enzyme yes, reaction time 6 h): 38.6%
Decomposition efficiency: ratio of each glycoside/aglycon within its isoflavone family ([2]; soymilk, substrate concentration 30%, heat treatment of enzyme no, reaction time 0 h): 33.6%
Decomposition efficiency: ratio of each glycoside/aglycon within its isoflavone family ([2]; soymilk, substrate concentration 30%, heat treatment of enzyme no, reaction time 1 h): not detected
Decomposition efficiency: ratio of each glycoside/aglycon within its isoflavone family ([2]; soymilk, substrate concentration 30%, heat treatment of enzyme no, reaction time 3 h): not detected
Decomposition efficiency: ratio of each glycoside/aglycon within its isoflavone family ([2]; soymilk, substrate concentration 30%, heat treatment of enzyme no, reaction time 6 h): not detected
Decomposition efficiency: ratio of each glycoside/aglycon within its isoflavone family ([2]; soymilk, substrate concentration 30%, heat treatment of enzyme yes, reaction time 6 h): 38.6%
reactivity of β-glucosidase derived from Aspergillus niger (in words) [3]: act well
aglycon ([3]; Reaction time 0 h): 0
glucoside ([3]; Reaction time 0 h): 100
aglycon ([3]; Reaction time 1 h): 100
glucoside ([3]; Reaction time 1 h): 0
aglycon ([3]; Reaction time 3 h): 100
glucoside ([3]; Reaction time 3 h): 0
aglycon ([3]; Reaction time 6 h): 100
glucoside ([3]; Reaction time 6 h): 0
SMILES: O=c1c(-c2ccc(O)cc2)coc2cc(O[C@@H]3O[C@H](CO)[C@@H](O)[C@H](O)[C@H]3O)cc(O)c12 [genistin]
